In US11377451B2, “Compositions and methods for treating cancer” (The Regents of the University of California, priority 2019, dated 2022):

Tests used:
[1] = Protein binding (fraction unbound in blood and brain)
GBM39 = test: GI50 assay (Cell Titer Glo proliferation, 3 days); assay type: cell-based, human; settings: Homo sapiens, 72 h; GBM39, 3 days
HK301 = test: GI50 assay (Cell Titer Glo proliferation, 3 days); assay type: cell-based, human; settings: Homo sapiens, 72 h; HK301, 3 days; read-out: HK301 GI50
[2] = Pharmacokinetic / brain penetration studies in mice; assay type: in vivo; settings: for Kp / Kp uu: male, CD-1, mouse; for Kp: brain / plasma
Method: Pharmacokinetic studies were performed on male CD-1 mice aged 8-10 weeks. Mice were dosed as indicated in duplicates. At the time points, whole blood was obtained by retro-orbital bleeding and brain tissue was harvested. Blood samples were centrifuged to obtain plasma and brain tissue was washed and homogenized. Samples were extracted with acetonitrile and supernatant was dried using a speed-vac. Dried samples were solubilized in 50:50:0.1 acetonitrile:water:formic acid and quantified on an Agilent 6400 series Triple Quadrupole LC/MS.
Disclosed in table 5 Brain to plasma percentages and unbound ratios of drugs in brain to plasma of indicated drugs in non-tumor bearing mice

[3] = Table 4, unbound partition coefficient of the brain and plasma, at equilibrium
[4] = Table 5, unbound ratios of drugs in brain to plasma, non-tumor bearing mice

Compound	GI50 (GBM39) [µM]	GI50 (HK301) [µM]	other results
Fc1c(Br)cccc1Nc1ncnc2cc3c(cc12)OC(CN1CCOCC1)CO3 (racemic) [JGK063, (±)-N-(3-Bromo-2-fluorophenyl)-7-[(morpholin-4-yl)methyl]-7,8-dihydro[1,4]dioxino[2,3-g]quinazolin-4-amine]	3.43	0.816	Bound (blood) ([1]; blood): 91.96%; fraction unbound ([1]; blood, Fu (blood)): 0.0804; Bound (brain) ([1]; brain): 96.22%; fraction unbound ([1]; brain, Fu (brain)): 0.0378; Kp ([2]; non-tumor bearing mice): 0.725
CN1CCN(CC2COc3cc4ncnc(Nc5cccc(Br)c5)c4cc3O2)CC1 (stereo not drawn) [JGK074]	6.67	2.28	Kp ([2]; non-tumor bearing mice): 1.66
Fc1c(Br)cccc1Nc1ncnc2cc3c(cc12)O[C@@H](CN1CCNCC1)CO3 [JGK083S, (7S)—N-(3-Bromo-2-fluorophenyl)-7-[(piperazin-1-yl)methyl]-7,8-dihydro[1,4]dioxino [2,3-g]quinazolin-4-amine]	0.841	0.529	Bound (blood) ([1]; blood): 92.98%; fraction unbound ([1]; blood, Fu (blood)): 0.0702; Bound (brain) ([1]; brain): 97.58%; fraction unbound ([1]; brain, Fu (brain)): 0.0242; Kp ([2]; non-tumor bearing mice): 2.31
Fc1c(Br)cccc1Nc1ncnc2cc3c(cc12)OCCO3 [JGK037, N-(3-Bromo-2-fluorophenyl)-7,8-dihydro[1,4]dioxino[2,3-g]quinazolin-4-amine]	1.12	0.329	Bound (blood) ([1]; blood): 98.30%; fraction unbound ([1]; blood, Fu (blood)): 0.017; Bound (brain) ([1]; brain): 98.96%; fraction unbound ([1]; brain, Fu (brain)): 0.0104; Kp ([2]; non-tumor bearing mice): 2.12; Kp uu [2, 3]: 1.3
Fc1c(I)cccc1Nc1ncnc2cc3c(cc12)OCCO3 [JGK042]	4.52	2.29	Bound (blood) ([1]; blood): 98.15%; fraction unbound ([1]; blood, Fu (blood)): 0.0185; Bound (brain) ([1]; brain): 98.86%; fraction unbound ([1]; brain, Fu (brain)): 0.0114; Kpuu (Avg) [2, 4]: 1.033; Kp uu [2, 3]: 1.03
Fc1cccc(Nc2ncnc3cc4c(cc23)OCCO4)c1F [JGK028]	5.57	1.69	Bound (blood) ([1]; blood): 98.56%; fraction unbound ([1]; blood, Fu (blood)): 0.0144; Bound (brain) ([1]; brain): 98.59%; fraction unbound ([1]; brain, Fu (brain)): 0.0141; Kp ([2]; non-tumor bearing mice): 1.06; Kp uu [2, 3]: 1.04
CN1CCN(CC2COc3cc4ncnc(Nc5cccc(Br)c5F)c4cc3O2)CC1 (racemic) [JGK068, (±)-N-(3-Bromo-2-fluorophenyl)-7-[(4-methylpiperazin-1-yl)methyl]-7,8-dihydro[1,4]dioxino[2,3-g]quinazolin-4-amine]	1.61	0.577	Bound (blood) ([1]; blood): 93.69%; fraction unbound ([1]; blood, Fu (blood)): 0.0631; Bound (brain) ([1]; brain): 97.89%; fraction unbound ([1]; brain, Fu (brain)): 0.0211; Kp ([2]; non-tumor bearing mice): 3.54
C[C@@H]1Oc2cc3c(Nc4cccc(Br)c4F)ncnc3cc2O[C@@H]1C (racemic) [JGK052, (±)-cis-N-(3-Bromo-2-fluorophenyl)-7,8-dimethyl-7,8-dihydro[1,4]dioxino[2,3-g]quinazolin-4-amine]	9.22	3.87	–
Oc1cc2ncnc(Nc3cccc(Cl)c3F)c2cc1O [JGK022]	150	31.1	–
Fc1c(Cl)cccc1Nc1ncnc2cc3c(cc12)OCCCO3 [JGK040, N-(3-Chloro-2-fluorophenyl)-8,9-dihydro-7H-[1,4]dioxepino[2,3-g]quinazolin-4-amine]	7.12	1.72	–
C#Cc1cccc(Nc2ncnc3cc4c(cc23)OCCO4)c1F [JGK038, N-(3-Ethynyl-2-fluorophenyl)-7,8-dihydro[1,4]dioxino[2,3-g]quinazolin-4-amine]	2.95	0.791	Bound (blood) ([1]; blood): 98.70%; fraction unbound ([1]; blood, Fu (blood)): 0.013; Bound (brain) ([1]; brain): 99.11%; fraction unbound ([1]; brain, Fu (brain)): 0.0089; Kp ([2]; non-tumor bearing mice): 0.843; Kp uu [2, 4]: 0.575
Fc1c(Br)cccc1Nc1ncnc2cc3c(cc12)OC(CN1CCCCC1)CO3 (racemic) [JGK065, (±)-N-(3-Bromo-2-fluorophenyl)-7-[(piperidin-1-yl)methyl]-7,8-dihydro[1,4]dioxino[2,3-g]quinazolin-4-amine]	7.34	3.43	–
COC(=O)[C@H](Cc1ccc(NC(=O)COc2cc3c(Nc4cccc(Cl)c4F)ncnc3cc2OC)cc1)NC(=O)OC(C)(C)C [JGK024]	125	156	–
Fc1c(Cl)cccc1Nc1ncnc2cc3c(cc12)OCO3 [JGK041, N-(3-Chloro-2-fluorophenyl)-2H-[1,3]dioxolo[4,5-g]quinazolin-8-amine]	6.04	1.66	–
N#Cc1cccc(Nc2ncnc3cc4c(cc23)OCCO4)c1 [JGK045, 3-[(7,8-Dihydro[1,4]dioxino[2,3-g]quinazolin-4-yl)amino]benzonitrile]	10.9	3.94	–
CN1CCN(C[C@H]2COc3cc4ncnc(Nc5cccc(Br)c5F)c4cc3O2)CC1 [JGK068S, (7S)—N-(3-Bromo-2-fluorophenyl)-7-[(4-methylpiperazin-1-yl)methyl]-7,8-dihydro[1,4]dioxino [2,3-g]quinazolin-4-amine]	1.21	0.44	Bound (blood) ([1]; blood): 94.04%; fraction unbound ([1]; blood, Fu (blood)): 0.0596; Bound (brain) ([1]; brain): 98.14%; fraction unbound ([1]; brain, Fu (brain)): 0.0186; Kp ([2]; non-tumor bearing mice): 3.78
N[C@@H](Cc1ccc(Nc2ncnc3cc4c(cc23)OCCO4)cc1)C(=O)O [JGK023]	96.3	86.2	–
CC(=O)N(CCS(C)(=O)=O)Cc1ccc(-c2ccc3ncnc(N(C(C)=O)c4ccc(OCc5cccc(F)c5)c(Cl)c4)c3c2)o1 [JGK011]	3.25	9.21	–

Compound	GI50 (GBM39) [µM]	GI50 (HK301) [µM]	other results
COC(=O)[C@H](Cc1ccc(Nc2ncnc3cc4c(cc23)OCCO4)cc1)NC(=O)OC(C)(C)C [JGK015]	11.5	2.15	–
CN(C)CCC1COc2cc3c(Nc4cccc(Br)c4F)ncnc3cc2O1 (racemic) [JGK087, (±)-N-(3-Bromo-2-fluorophenyl)-8-[2-(dimethylamino)ethyl]-7,8-dihydro[1,4]dioxino[2,3-g]quinazolin-4-amine]	5.26	3.74	–
N#Cc1cccc(Nc2ncnc3cc4c(cc23)OCCO4)c1F [JGK044, 3-[(7,8-Dihydro[1,4]dioxino[2,3-g]quinazolin-4-yl)amino]-2-fluorobenzonitrile]	5.63	4.52	–
Brc1cccc(Nc2ncnc3cc4c(cc23)OCCO4)c1 [JGK073]	6.07	2.06	–
C[C@@H]1Oc2cc3ncnc(Nc4cccc(Br)c4F)c3cc2O[C@H]1C (racemic) [JGK059, (±)-trans-N-(3-Bromo-2-fluorophenyl)-7,8-dimethyl-7,8-dihydro[1,4]dioxino[2,3-g]quinazolin-4-amine]	11.2	8.11	–
CN(C)CCC1COc2cc3ncnc(Nc4cccc(Br)c4F)c3cc2O1 (racemic) [JGK069, (±)-N-(3-Bromo-2-fluorophenyl)-7-[2-(dimethylamino)ethyl]-7,8-dihydro[1,4]dioxino[2,3-g]quinazolin-4-amine]	2.17	0.659	–
Fc1cc(F)c(Nc2ncnc3cc4c(cc23)OCCO4)c(F)c1 [JGK029]	34	24.4	–
Fc1c(Nc2ncnc3cc4c(cc23)OCCO4)ccc(Cl)c1Br [JGK053, N-(3-Bromo-4-chloro-2-fluorophenyl)-7,8-dihydro[1,4]dioxino[2,3-g]quinazolin-4-amine]	5.28	2.78	–
C#Cc1cccc(N(C(C)=O)c2ncnc3cc(OCCOC)c(OCCOC)cc23)c1 [JGK002]	19.8	5.45	–
CN1CCN(CC2COc3cc4c(Nc5cccc(Br)c5F)ncnc4cc3O2)CC1 (racemic) [JGK078, (±)-N-(3-Bromo-2-fluorophenyl)-8-[(4-methylpiperazin-1-yl)methyl]-7,8-dihydro[1,4]dioxino[2,3-g]quinazolin-4-amine]	5.76	2.03	–
Fc1ccc(Br)cc1Nc1ncnc2cc3c(cc12)OCCO3 [JGK055, N-(5-Bromo-2-fluorophenyl)-7,8-dihydro[1,4]dioxino[2,3-g]quinazolin-4-amine]	0.966	0.29	–
N[C@H](Cc1ccc(Nc2ncnc3cc4c(cc23)OCCO4)cc1)C(=O)O [JGK021]	556	481	–
OC[C@H]1COc2cc3ncnc(Nc4cccc(Br)c4F)c3cc2O1 [JGK082S]	1.89	1.67	–
Fc1ccc(F)c(Nc2ncnc3cc4c(cc23)OCCO4)c1 [JGK026]	16.5	6.12	–
Fc1c(Br)cccc1Nc1ncnc2cc3c(cc12)OCC(CCN1CCCC1)O3 (racemic) [JGK089, (±)-N-(3-Bromo-2-fluorophenyl)-8-[2-(pyrrolidin-1-yl)ethyl]-7,8-dihydro[1,4]dioxino[2,3-g]quinazolin-4-amine]	5.09	3.16	–
Fc1c(Nc2ncnc3cc4c(cc23)OCCO4)ccc(Br)c1Br [JGK054, N-(3,4-Dibromo-2-fluorophenyl)-7,8-dihydro[1,4]dioxino[2,3-g]quinazolin-4-amine]	7.7	5.72	–
Fc1c(Br)cccc1Nc1ncnc2cc3c(c(F)c12)OCCO3 [JGK072, N-(3-Bromo-2-fluorophenyl)-5-fluoro-7,8-dihydro[1,4]dioxino[2,3-g]quinazolin-4-amine]	12	5.02	–
Fc1c(Br)cccc1Nc1ncnc2cc3c(cc12)OC(CCN1CCOCC1)CO3 (racemic) [JGK064, (±)-N-(3-Bromo-2-fluorophenyl)-7-[2-(morpholin-4-yl)ethyl]-7,8-dihydro[1,4]dioxino[2,3-g]quinazolin-4-amine]	4	1.21	–
